Data published in patent publication US5032398A, “Selective modification of the catalytic subunit of pertussis toxin” (priority 1986, dated 1991).

Columns and labels:
pertussis toxin = pertussis toxin (Bordetella pertussis, UniProt P04977); test: Inactivation of NADase activity by iodoacetate after different activator combinations (Example Seven); format: biochemical
Protocol: (§1) Pertussis toxin was incubated first at 37° C. for fifteen minutes in […] buffer A (100 mM Tris-HCl, pH 8.0 with 1 mM NaEDTA). EDTA was added to chelate divalent cations, which may promote oxidation of free --SH groups. During this incubation, DTT and ATP were present in concentrations of 1 mM each, and CHAPS was present in a concentration of 1 weight percent. Labelled iodoacetate was then added ([…], 12.5 mM), and the tube incubated on ice for twenty hours. The sample was then mixed with sodium dodecylsulfate and β-mercaptoethanol, heated at 95° C. for one minute, and electrophoresed. After electrophoresis, the gel was fixed, treated with Fluorohance (Research Products International), dried and used to expose x-ray film.
Pertussis toxin was incubated at 37° C. for fifteen minutes as described in Example Six, and then a second incubation was begun by adding 10 μl buffer A with or without 12.5 mM iodoacetate, mixing the contents of the tube and lowering the temperature to 30° C. After fifteen minutes, the tubes were shifted to an ice bath for ten minutes. A third incubation was then begun by adding 10 μl buffer A containing 200 mM DTT to those tubes containing iodoacetate to scavenge the iodoacetate. To those tubes not containing iodoacetate during the second incubation, a mixture of 200 mM DTT and 12.5 mM iodoacetate in buffer A, previously incubated for an hour on ice, was added. The third incubation was continued for one hour on ice.
The contents of each tube were then assayed for NADase activity by adding 40 μl of a reaction mix consisting of buffer A containing carbon-14 labelled NAD (final concentration in the 100 μl final volume was 25 μM), and 50 mM sodium chloride. Different reaction mixtures with various additions were used, so that in all tubes the final concentration of ATP was 1 mM and CHAPS was 1 weight percent. The assay was conducted at 37° C. for sixty minutes, and the released labelled nicotinimide was isolated and counted. The iced controls were formed by incubating pertussis toxin (1 μg) on ice in 10 mM sodium phosphate (pH 7) and 50 mM sodium chloride during the first three incubations. […] The first three incubations were done under a nitrogen atmosphere using degassed conditions, and the second and third incubations were done under subdued light.

[1] = test system: S1 -S5 subunits of the toxin; test: Labelled iodoacetate incorporation into toxin subunits, electrophoresis and x-ray film (Examples Two and Six); parameters: species or system Bordetella pertussis
Protocol: Pertussis toxin (2.5 μg) was incubated for thirty minutes at 37° C. in 50 μl of 50 mM Tris-HCl (pH 8.0) with or without combinations of the activators ATP, CHAPS and DTT. During this incubation, ATP was 1 mM, CHAPS was 1 weight percent, and DTT was 0.5 mM, when present. Following this incubation, 75 nmol (1.34 microCi of iodo[^14 C]acetate and 25 μl of water were then added, and the tubes incubated for an additional thirty minutes under nitrogen gas at 30° C. in the dark. This labelling reaction was terminated by adding 1 ml of ice-cold water containing 7.5 mM non-radioactive iodoacetate, 2.5 μg bovine serum albumin, and 150 μg sodium deoxycholate. After ten minutes on ice, 100 μl 72% triochloroacetic acid was added, and the precipitate recovered by centrifugation. Sodium dodecylsulfate and beta-mercaptoethanol were added, the sample heated to 95° C. for one minute, and then electrophoresed using 15% polyacrylamide gels. The fixed gels were then treated, dried and used to expose x-ray film at -70° C.
as §1

S1 -S5 subunits of the toxin, sequence (P04977 35-269 limits assumed): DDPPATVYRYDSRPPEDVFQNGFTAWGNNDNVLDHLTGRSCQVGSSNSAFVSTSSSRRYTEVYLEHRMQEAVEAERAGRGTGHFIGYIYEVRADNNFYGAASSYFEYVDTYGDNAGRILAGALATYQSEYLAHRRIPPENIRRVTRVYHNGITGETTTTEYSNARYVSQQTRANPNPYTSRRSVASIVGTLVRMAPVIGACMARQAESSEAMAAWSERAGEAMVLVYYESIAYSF
S1 -S5 subunits of the toxin, sequence (P04978 28-226 limits assumed, further chain): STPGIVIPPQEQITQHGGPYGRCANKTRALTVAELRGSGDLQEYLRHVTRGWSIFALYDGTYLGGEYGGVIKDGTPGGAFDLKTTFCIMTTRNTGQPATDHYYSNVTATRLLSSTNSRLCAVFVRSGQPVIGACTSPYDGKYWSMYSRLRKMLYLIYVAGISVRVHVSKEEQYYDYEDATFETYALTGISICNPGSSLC
S1 -S5 subunits of the toxin, sequence (P04979 29-227 limits assumed, further chain): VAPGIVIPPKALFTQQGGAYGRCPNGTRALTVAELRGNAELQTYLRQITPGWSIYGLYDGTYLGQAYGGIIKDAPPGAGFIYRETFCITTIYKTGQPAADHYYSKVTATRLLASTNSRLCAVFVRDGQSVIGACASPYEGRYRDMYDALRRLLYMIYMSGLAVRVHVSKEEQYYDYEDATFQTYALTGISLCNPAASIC
S1 -S5 subunits of the toxin, sequence (P0A3R5 43-152 limits assumed, further chain): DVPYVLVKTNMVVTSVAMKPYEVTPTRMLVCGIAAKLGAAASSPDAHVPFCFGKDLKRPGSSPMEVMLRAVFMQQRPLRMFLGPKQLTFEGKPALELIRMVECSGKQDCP
S1 -S5 subunits of the toxin, sequence (P04981 35-133 limits assumed, further chain): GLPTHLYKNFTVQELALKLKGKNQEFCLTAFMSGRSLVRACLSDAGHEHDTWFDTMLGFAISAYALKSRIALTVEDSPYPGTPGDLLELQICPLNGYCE
pertussis toxin, sequence (P04977 35-269 limits assumed): as the sequence (P04977 35-269 limits assumed) above

`O=C(O)CI` [iodoacetate] was tested, and the “Time to inactivate toxin” value (pertussis toxin; at 30° C.) was “within about fifteen minutes”, the “Percent NADase activity relative to no addition to second incubation” value (pertussis toxin; first incubation: ATP) was 153 and the “Percent NADase activity relative to no addition to second incubation” value (pertussis toxin; first incubation: ATP, CHAPS) was 80. For the same compound, the “Percent NADase activity relative to no addition to second incubation” value (pertussis toxin; first incubation: ATP, DTT) was 107, the “Percent NADase activity relative to no addition to second incubation” value (pertussis toxin; first incubation: ATP, DTT, CHAPS) was 14 and the “Percent NADase activity relative to no addition to second incubation” value (pertussis toxin; first incubation: CHAPS) was 108. For the same compound, the “Percent NADase activity relative to no addition to second incubation” value (pertussis toxin; first incubation: DTT) was 123, the “Percent NADase activity relative to no addition to second incubation” value (pertussis toxin; first incubation: DTT, CHAPS) was 84 and the “Percent NADase activity relative to no addition to second incubation” value (pertussis toxin; first incubation: none) was 87. The “Amount of label incorporated into the S1 subunit” value ([1]; DTT 1 mM, ATP 1 mM, CHAPS 1%, labelled iodoacetate on ice for twenty hours) was “equal to the sum of that incorporated into the S2 and S3 subunits”, the “Carboxymethylation of toxin subunits, in words” value ([1]; after activation of the toxin by DTT, ATP and CHAPS) was “carboxymethylated the enzymatic S1 subunit” and the “Extent of carboxymethylation of the toxin” value ([1]; pH lowered from 8 to 7) was “decreases somewhat”.
